The record followed here is BindingDB's records for doi:10.1021/jm960092w (Agouron Pharmaceuticals, 1996).

In general, Ki refers to the equilibrium dissociation constant of an inhibitor or competing ligand from its target. A low value points to higher affinity.

This experiment deals with T1, Dimer of Gag-Pol polyprotein [489-587] (Human immunodeficiency virus 1, UniProt P12497).
T1 construct: 489-587
The experiment in a line: Protease Inhibition Assay. Conditions: pH 5.6; 37 °C. On the procedure: Protease activity was measured by continuous chromogenic assay. The chromogenic peptide His-Lys-Ala-Arg-Val-Leu-(p-NO2-Phe)-Glu-Ala-Nleu-Ser was used as a substrate. Reactions were followed by the decrease of absorbance at 300 nm measured by spectrophotometer. Experimental results were analyzed by the nonlinear regression analysis, using a mathematical model for tight binding inhibitors.

Molecule `CC(C)(C)NC(=O)c1ccccc1C[C@@H](O)[C@H](Cc1ccccc1)NC(=O)[C@H](CC(N)=O)NC(=O)c1ccc2ccccc2n1` [(2S)-N-[(2S,3R)-4-[2-(tert-butylcarbamoyl)phenyl]-3-hydroxy-1-phenylbutan-2-yl]-2-(quinolin-2-ylformamido)butanediamide] yielded a Ki of 2 nM.
